From paper PMC8895403, “A Strategy to Select Macrocyclic Peptides Featuring Asymmetric Molecular Scaffolds as Cyclization Units by Phage Display” (Journal of the American Chemical Society, 2022)
Read-outs that look alike come from different tables or passages of the source. Numbered stars: 1 amine (or outer) side, 2 acyl side, 3 side chain; on linkers, the order of the positions; unused ones are H or OH. Bridge positions count the residues as written; N and C are the ends. Square brackets hold non-standard residues; d marks the D form. Ends that are not written are not given here. Peptide text beside a SMILES is read from it. * marks the point of attachment. X1 = COc1ccc(CN([C@@H](C)C(=O)[*:2])[*:1])cc1N[*:3]; X3 = COc1ccc(CO)cc1NC(=O)C*; X2 = O=C(C[*:2])[*:1]

How the values were obtained:
streptavidin [1] = molecular target: T1, streptavidin (Streptomyces avidinii, UniProt P22629); assay: Biopanning of phages displaying SAV_1-3 against streptavidin (recovery rates from phage titers); assay type: binding; settings: for recovery rate / retention after biopanning against streptavidin (in words): phages subjected to cyclization conditions, compared with linear and modified
T1 sequence (P22629 25-183): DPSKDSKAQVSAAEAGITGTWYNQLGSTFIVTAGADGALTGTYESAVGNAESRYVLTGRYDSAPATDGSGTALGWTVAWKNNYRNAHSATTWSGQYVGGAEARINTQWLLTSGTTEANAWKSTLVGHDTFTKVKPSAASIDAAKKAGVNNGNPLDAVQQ
Source text: To independently verify that our strategy selects peptide binders, we first produced phages displaying SAV_1–3. Next, we performed the modification and cyclization reactions as described previously and determined phage titers before and after biopanning against streptavidin for phages featuring the linear precursor, the modified and cyclized peptides (Figure S12, see the Supporting Information for details). Consistent with the selection of peptide binders upon addition of our bifunctional cyclization units, the recovery rates for linear precursors were the lowest for all three peptides (Figure 6A). […] Featuring a reactive aldehyde moiety, this apparently higher affinity of the modified analogue of SAV_2 could be the result of the transient formation of an iminium ion via condensation with either the N-terminal amine or a lysine side chain of streptavidin.
Production of SAV_1-3 displaying bacteriophages: To validate the selection of cyclic peptide binders over their linear, and modified counterparts, phages displaying the peptide sequences of the […] most enriched hits SAV_1, SAV_2 and SAV_3 were panned against streptavidin either in linear, modified or cyclic peptide form. Phage titers pre- and post-streptavidin panning were determined and compared between all the samples.
In brief, 700 μL of densely grown E. coli TG1 overnight cultures harboring the […]
-fd plasmid (SAV_1), […]-fd plasmid (SAV_2) and
-fd plasmid (SAV_3) respectively, were used to inoculate 500 mL 2xYT-medium containing 30 μg/mL chloramphenicol. After incubation overnight (30 °C at 190 rpm) phage particles were purified and all cysteines were reduced with TCEP as described in Section
9. At this point the phage samples were split into 3 fractions of 2.5 mL. One sample was stored at 4 °C as ‘linear phage’ sample, the other two samples were modified with scaffold 3 (SAV_1 and SAV_2) or scaffold 4 (SAV_3) and purified as described in Section 9. […] Phage titers of these samples were determined ( Figure S12A) and all samples were diluted to approximately […] colony forming units using reduction buffer. […]

streptavidin [2] = molecular target: T1, streptavidin; assay: HABA competition binding assay (competitive ligand-binding analysis); settings: for Kd: read-out: Kd,app
Source text: To pinpoint the binding mode of SAV_1–3 variants, we first synthesized the linear precursors and then prepared their modified and cyclized versions (Figure S13). […] To further elucidate the role of the free aldehyde for binding, we additionally prepared SAV_1–3 peptides that were modified with cyclization units bearing an alcohol moiety instead (Figures 6b and S13). […]
In vitro affinity measurements: To determine the affinity of the selected peptides for Streptavidin, a competitive binding experiment was performed similarly to previously described literature procedures.[7] In brief, for the competitive binding experiment, increasing amounts of peptide (final concentration 0.01 – 500 μM in 12.5% ACN + 0.1% TFA in PBS phosphate buffered saline (PBS, 137 mM NaCl, 2.7 mM KCl, 10 mM Na2HPO4, 2 mM […]
Streptavidin monomer (final concentration 1.5 mM/ 40 µM (SAV_1), 33 µM (SAV_2), 32 µM (SAV_3)). The reactions were allowed to reach equilibrium at room temperature (60 min.) and […]
IC50 values were obtained by fitting the average of three measurements to equation 1:
A = A + A500nm,max − A500nm,min (1) […]
where, A500nm is the measured absorbance at unbound peptide concentration, [L], and H is the Hill coefficient (H = 1 assumed for streptavidin-binding peptides). A500nm,min corresponds to the value measured in presence of 1 mM biotin and A500nm,max corresponds to absorbance values measured in absence of the peptide.
The Kd values for SAV_1_mod, SAV_1_cycl, and SAV_2_mod, SAV_1S_mod, and SAV_1S_cycl were obtained from their respective IC50 values using equation 2: […]

[3] = Head-to-side-chain cyclisation: Cys S-alkylation with bifunctional aldehyde linker 1-4 (benzyl bromide or bromoacetamide), then intramolecular reductive amination of the N-terminal amine with NaBH3CN (one pot, crude peptides); settings: the molecule shown is the open-chain precursor, 100 mM MOPS pH 6.5 / about 20% MeCN, TCEP, 0.5 mM, 4.0 °C, 24.0 h, 2 steps, scale: 1 = smooth/efficient conversion to macrocycle as major UPLC-MS species, <1 = partial, mixture

In the case of `C[C@H](N)C(=O)N[C@@H](Cc1c[nH]c2ccccc12)C(=O)N[C@@H](Cc1c[nH]c2ccccc12)C(=O)N[C@@H](CCC(=O)O)C(=O)N[C@@H](CC(=O)O)C(=O)N[C@@H](CCCNC(=N)N)C(=O)NCC(=O)N1CCC[C@H]1C(=O)N1CCC[C@H]1C(=O)N[C@@H](CS)C(=O)N[C@@H](C)C(N)=O` [SAV_2], the “recovery rate after biopanning against streptavidin (in words)” value (streptavidin [1]; phages with modified (aldehyde) peptide, compared with linear and cyclized) is reported as “highest recovery rates” and the “affinity for streptavidin in the competition assay (in words)” value (streptavidin [2]; form of the peptide as worded at the place) is reported as “the cyclic peptide did not display any affinity”.

With `COc1ccc(CO)cc1NC(=O)CSC[C@H](NC(=O)[C@H](C)NC(=O)[C@@H]1CSCC(=O)Nc2cc(ccc2OC)CN[C@@H](C)C(=O)N[C@@H](Cc2c[nH]c3ccccc23)C(=O)N[C@@H](Cc2c[nH]c3ccccc23)C(=O)N[C@@H]([C@@H](C)O)C(=O)N[C@@H](CC(N)=O)C(=O)N[C@@H](CC(=O)O)C(=O)N[C@@H](Cc2ccccc2)C(=O)N1)C(=O)N[C@@H](C)C(N)=O` [cyclic SAV_1] (H-[X1]WWTNDFCAC(X3)A-NH2; linker 1-8 via X2) the “factor/fold advantage in Kd,app of cyclic peptide over aldehyde-modified peptide” value (streptavidin [2]; cyclic vs aldehyde-modified form of the same sequence) was roughly 20.

In the case of `COc1ccc2cc1NC(=O)CSC[C@@H](C(=O)N[C@@H](C)C(N)=O)NC(=O)[C@H](Cc1ccccc1)NC(=O)[C@H](CC(=O)O)NC(=O)[C@H](CC(N)=O)NC(=O)[C@H]([C@@H](C)O)NC(=O)[C@H](Cc1c[nH]c3ccccc13)NC(=O)[C@H](Cc1c[nH]c3ccccc13)NC(=O)[C@H](C)NC2` [cyclic SAV_1S] (H-[X1]WWTNDFCA-NH2; linker 1-8 via X2), the Kd (streptavidin [2]; cyclic peptide) is reported as 164 ± 78 nM.

AWWTNDFCA-NH2 [SAV_1S] gave a Kd (streptavidin [2]; aldehyde-modified peptide (Figure 6b, column 3), >10 μM given where no saturation) of 5160 ± 590 nM, a Kd (streptavidin [2]; cyclic peptide (Figure 6b, column 4), >10 μM given where no saturation) of 164 ± 78 nM and a Kd (streptavidin [2]; linear precursor peptide (Figure 6b, column 1), >10 μM given where no saturation) greater than 10000 nM.

For `C[C@H](N)C(=O)N[C@@H](Cc1c[nH]c2ccccc12)C(=O)N[C@@H](Cc1c[nH]c2ccccc12)C(=O)N[C@H](C(=O)N[C@@H](CC(N)=O)C(=O)N[C@@H](CC(=O)O)C(=O)N[C@@H](Cc1ccccc1)C(=O)N[C@@H](CS)C(=O)N[C@@H](C)C(=O)N[C@@H](CS)C(=O)N[C@@H](C)C(N)=O)[C@@H](C)O` [SAV_1], the “recovery rate / retention after biopanning against streptavidin (in words)” value (streptavidin [1]) was “highest levels of retention”.

For `CSCC[C@H](NC(=O)CNC(=O)[C@@H](NC(=O)[C@H](CC(C)C)NC(=O)CNC(=O)[C@@H](NC(=O)[C@H](CC(N)=O)NC(=O)[C@H](CCCNC(=N)N)NC(=O)[C@H](C)N)C(C)C)C(C)C)C(=O)N[C@@H](CS)C(=O)N[C@@H](C)C(N)=O` [SAV_3], the “recovery rate / retention after biopanning against streptavidin (in words)” value (streptavidin [1]) was “highest levels of retention”.

Molecule `CC(C)[C@H](NC(=O)[C@H](C)N)C(=O)N[C@@H](CC(N)=O)C(=O)N[C@@H](CCC(=O)O)C(=O)N[C@@H](CCCCN)C(=O)N[C@@H](Cc1c[nH]cn1)C(=O)N[C@@H](Cc1ccc(O)cc1)C(=O)N[C@@H](CSCC(=O)Nc1ccc(C=O)cc1)C(=O)N[C@@H](Cc1c[nH]c2ccccc12)C(=O)N[C@@H](C)C(N)=O` has a ring closure, product found ([3]; 33-membered ring) of 1.

In the case of `CC(C)[C@H](NC(=O)[C@@H](N)CCCCN)C(=O)N[C@@H](CO)C(=O)N[C@@H](CO)C(=O)NCC(=O)NCC(=O)N[C@@H](CSCc1ccc(C=O)cc1)C(=O)N[C@@H](Cc1c[nH]c2ccccc12)C(=O)N[C@@H](C)C(N)=O` [H-Lys-Val-Ser-Ser-Gly-Gly-Cys(CH2-C6H4-4-CHO)-Trp-Ala-NH2], the ring closure, product found ([3]; 28-membered ring) is reported as 1.

For `CC(C)[C@H](NC(=O)[C@@H](N)CCCCN)C(=O)N[C@@H](CO)C(=O)N[C@@H](CO)C(=O)NCC(=O)NCC(=O)N[C@@H](CSCC(=O)Nc1ccc(C=O)cc1)C(=O)N[C@@H](Cc1c[nH]c2ccccc12)C(=O)N[C@@H](C)C(N)=O`, the ring closure, product found ([3]; 30-membered ring) was 1.

With `COc1ccc(C=O)cc1NC(=O)CSC[C@H](NC(=O)[C@H](Cc1ccc(O)cc1)NC(=O)[C@H](Cc1c[nH]cn1)NC(=O)[C@H](CCCCN)NC(=O)[C@H](CCC(=O)O)NC(=O)[C@H](CC(N)=O)NC(=O)[C@@H](NC(=O)[C@H](C)N)C(C)C)C(=O)N[C@@H](Cc1c[nH]c2ccccc12)C(=O)N[C@@H](C)C(N)=O` the ring closure, product found ([3]; 32-membered ring) was 1.

Molecule `CC(C)[C@H](NC(=O)[C@H](C)N)C(=O)N[C@@H](CC(N)=O)C(=O)N[C@@H](CCC(=O)O)C(=O)N[C@@H](CCCCN)C(=O)N[C@@H](Cc1c[nH]cn1)C(=O)N[C@@H](Cc1ccc(O)cc1)C(=O)N[C@@H](CSCc1ccc(C=O)cc1)C(=O)N[C@@H](Cc1c[nH]c2ccccc12)C(=O)N[C@@H](C)C(N)=O` has a ring closure, product found ([3]; 31-membered ring) of 1.

For `CC(=O)N[C@@H](CCCCN)C(=O)N[C@H](C(=O)N[C@@H](CO)C(=O)N[C@@H](CO)C(=O)NCC(=O)NCC(=O)N[C@@H](CSCC(=O)Nc1ccc(C=O)cc1)C(=O)N[C@@H](Cc1c[nH]c2ccccc12)C(=O)N[C@@H](C)C(N)=O)C(C)C`, the ring closure, product found ([3]; 34-membered ring) was less than 1.

`CC(=O)N[C@@H](CCCCN)C(=O)N[C@H](C(=O)N[C@@H](CO)C(=O)N[C@@H](CO)C(=O)NCC(=O)NCC(=O)N[C@@H](CSCC(=O)Nc1ccc2cc(C=O)ccc2c1)C(=O)N[C@@H](Cc1c[nH]c2ccccc12)C(=O)N[C@@H](C)C(N)=O)C(C)C` gave a ring closure, product found ([3]; 36-membered ring) of less than 1.
